Calls of active or inactive are those of the source. No cut-off for these calls is given here.
Columns and labels:
[1] = molecular target: T1, 5-hydroxytryptamine receptor 2A (Homo sapiens, UniProt P28223); test: Inhibition of [125I](+/-)DOI binding to 5-HT2AR (unknown origin ) expressed in HEK293 cells assessed as inhibition constant by scintillation counter analysis; format: cell-based
[2] = molecular target: 5-hydroxytryptamine receptor 2B (Homo sapiens, UniProt P41595); test: Inhibition of [125I](+/-)DOI binding to 5-HT2BR (unknown origin ) expressed in CHO cells assessed as inhibition constant by scintillation counter analysis; format: cell-based
Chain of 5-hydroxytryptamine receptor 2B (P41595 whole entry): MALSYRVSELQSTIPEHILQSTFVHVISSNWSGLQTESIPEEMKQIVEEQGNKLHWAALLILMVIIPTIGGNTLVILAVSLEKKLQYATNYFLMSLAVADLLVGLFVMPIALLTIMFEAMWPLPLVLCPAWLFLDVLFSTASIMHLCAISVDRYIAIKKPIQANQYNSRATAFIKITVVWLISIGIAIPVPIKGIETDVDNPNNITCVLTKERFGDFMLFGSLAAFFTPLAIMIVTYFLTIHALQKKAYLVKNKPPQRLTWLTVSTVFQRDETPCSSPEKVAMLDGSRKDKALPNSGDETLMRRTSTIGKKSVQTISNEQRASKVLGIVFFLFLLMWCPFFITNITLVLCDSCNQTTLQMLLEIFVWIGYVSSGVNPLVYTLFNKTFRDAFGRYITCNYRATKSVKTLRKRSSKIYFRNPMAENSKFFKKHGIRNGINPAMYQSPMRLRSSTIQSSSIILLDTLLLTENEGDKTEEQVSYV

[3] = molecular target: T1, 5-hydroxytryptamine receptor 2A; test: Inhibition of [125I](+/-)DOI binding to 5-HT2AR (unknown origin ) expressed in HEK293 cells at 10 uM by scintillation counter analysis; format: cell-based
[4] = molecular target: T1, 5-hydroxytryptamine receptor 2A; test: Inhibition of 5-HT2AR (unknown origin ) assessed as inhibition constant

T1 sequence (P28223 whole entry): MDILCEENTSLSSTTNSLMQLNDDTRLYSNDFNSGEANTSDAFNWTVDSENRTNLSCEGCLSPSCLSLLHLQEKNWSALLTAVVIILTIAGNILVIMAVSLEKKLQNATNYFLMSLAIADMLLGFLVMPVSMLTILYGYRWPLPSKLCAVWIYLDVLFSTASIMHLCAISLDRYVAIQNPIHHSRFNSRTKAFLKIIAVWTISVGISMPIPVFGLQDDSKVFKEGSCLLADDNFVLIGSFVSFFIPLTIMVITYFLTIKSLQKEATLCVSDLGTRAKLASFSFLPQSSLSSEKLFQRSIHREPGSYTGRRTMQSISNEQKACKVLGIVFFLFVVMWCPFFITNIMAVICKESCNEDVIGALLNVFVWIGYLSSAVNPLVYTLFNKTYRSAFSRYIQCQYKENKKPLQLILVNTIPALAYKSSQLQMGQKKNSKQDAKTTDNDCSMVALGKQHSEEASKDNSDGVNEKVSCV

Compound | Ki [1] [µM] | Ki [2] [µM] | inhibition [3] | Ki [4] [µM]
CCOP(=O)(OCC)c1ccc2[nH]cc(CCN(C)C)c2c1 | 0.62 | 0.14 | Active | 
CN(C)CCc1c[nH]c2cccc(OP(=O)(O)O)c12 [PSILOCYBIN] |  |  |  | > 10
CCOP(=O)(OCC)c1cccc2[nH]cc(CCN(C)C)c12 |  |  | Active | 
